US20260078103A1, “ISOQUINOLONES AS PI3K INHIBITORS” (OnKure, Inc., priority 2022, published 2026)
Where two headings read alike, the source gives them in different places.

What was measured:
Format in all cases: cell-based
[1] = test system: phosphorylation of AKT (pAKT) in T47D cells expressing mutant PI3Ka (H1047R); test: In vitro cell pAKT (Ser473) HTRF, T47D cells; details: cellular pAKT, T47D cells, mutant PI3Ka (H1047R), 6 hours, read-out: Avg T-47D IC50
How it was run: (§1)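 pAKT (Ser473) was quantified by HTRF in lysates from cells exposed 6 h at 37 °C to 10-point compound series, with T47D in insulin-supplemented RPMI/10% FBS and SKBR3 in McCoy's 5a/10% FBS. Controls: 0.1% DMSO (high) and 10 uM alpelisib (low). IC50 from sigmoidal curve fitting.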

[2] = test system: phosphorylation of AKT (pAKT) in SKBR3 cells express WT PI3Ka; test: In vitro cell pAKT (Ser473) HTRF, SKBR3 cells; details: cellular pAKT
How it was run: as §1

[3] = test system: T47D cells expressing mutant PI3Ka (H1047R); test: In vitro cell proliferation, T47D cells (CellTiter-Glo); details: inhibition of proliferation, read-out: Avg T-47D EC50
How it was run: (§2)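 Proliferation was read by CellTiter-Glo luminescence after 72 h of exposure to 10-point compound dilutions at 37 °C and 5% CO2. T47D (RPMI, 10% FBS, insulin 0.2 units/mL) and SKBR3 (McCoys 5a, 10% FBS) cells were seeded at 1,500 cells/well. EC50 was fitted from inhibition relative to DMSO and 10 uM Alpelisib.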

[4] = test system: SKBR3 cells express WT PI3Ka; test: In vitro cell proliferation, SKBR3 cells (CellTiter-Glo); details: inhibition of proliferation
How it was run: as §2

Compound	IC50 [1]	IC50 ([2]; 6 hours)	EC50 ([3]; 72 hours)	EC50 ([4]; 72 hours)	IC50 ([1]; Homo sapiens, T47D, 6 h)	IC50 ([2]; Homo sapiens, SK-BR-3, 6 h)	EC50 ([3]; Homo sapiens, T47D, 72 h)	EC50 ([4]; Homo sapiens, SK-BR-3, 72 h)
Cc1cc(C(C)Nc2ccccc2C(=O)O)c2cc(N3CCS(=O)(=O)CC3)n(C)c(=O)c2c1 (single isomer, unassigned) [Example 151]	> 15000 nM	> 15000 nM	> 15000 nM	> 15000 nM				
Cc1cnc(-c2ncc(-c3cc4c([C@@H](C)Nc5ccccc5C(=O)O)cc(F)cc4c(=O)n3C)cc2F)cn1 [Example 515]					1 to 500 nM	> 15000 nM	1 to 500 nM	2000 to 15000 nM
CC(Nc1ccccc1C(=O)O)c1cc(F)cc2c(=O)n(C)c(N3C4CCC3CN(CC(F)(F)F)C4)c(F)c12 (single isomer, unassigned) [Example 566]	> 15000 nM	> 15000 nM	2000 to 15000 nM					2000 to 15000 nM
C[C@@H](Nc1cccc(F)c1C(=O)O)c1cc(F)cc2c(=O)n(C)c(C34CC(C(F)(F)F)(C3)C4)cc12 [Example 39, (R)-2-fluoro-6-((1-(7-fluoro-2-methyl-1-oxo-3-(3-(trifluoromethyl)bicyclo[1.1.1]pentan-1-yl)-1,2-dihydroisoquinolin-5-yl)ethyl)amino)benzoic acid]					1 to 500 nM	> 15000 nM	1 to 500 nM	> 15000 nM
COC[C@@H]1CC1c1cc2c([C@@H](C)Nc3ccccc3C(=O)O)cc(C)cc2c(=O)n1C (single isomer, unassigned) [Example 308]		2000 to 15000 nM		2000 to 15000 nM	1 to 500 nM		1 to 500 nM	
Cc1cc(C(C)Nc2ccccc2C(=O)O)c2cc(C3=CCC(C)(C)CC3)n(C)c(=O)c2c1 (single isomer, unassigned) [Example 6, 2-((1-(3-(4,4-dimethylcyclohex-1-en-1-yl)-2,7-dimethyl-1-oxo-1,2-dihydroisoquinolin-5-yl)ethyl)amino)benzoic acid]	1 to 500 nM	2000 to 15000 nM	1 to 500 nM	2000 to 15000 nM				
Cc1cc([C@@H](C)Nc2ccccc2C(=O)O)c2cc(-c3cnc4ccoc4c3)n(C)c(=O)c2c1 [Example 265]					1 to 500 nM	> 15000 nM	1 to 500 nM	> 15000 nM
Cc1cc([C@@H](C)Nc2ccccc2C(=O)O)c2cc(C3CC3(F)F)n(C)c(=O)c2c1 (single isomer, unassigned) [Example 384]					1 to 500 nM	> 15000 nM	1 to 500 nM	> 15000 nM
Cc1cc([C@@H](C)Nc2ccccc2C(=O)O)c2cc(N3CC4(CN(CC(F)(F)F)C4)C3)n(C)c(=O)c2c1 [Example 184]					1 to 500 nM	> 15000 nM	500 to 2000 nM	> 15000 nM
CCOc1ncc(-c2cc3c([C@@H](C)Nc4ccccc4C(=O)O)cc(C)cc3c(=O)n2C)cc1F [Example 238]					1 to 500 nM	> 15000 nM	1 to 500 nM	> 15000 nM
Cc1cc([C@@H](C)Nc2ccc(Cl)c(F)c2C(=O)O)c2cc(N3CCN(CC(F)(F)F)CC3)n(C)c(=O)c2c1 [Example 327]	500 to 2000 nM	2000 to 15000 nM	500 to 2000 nM	> 15000 nM				
C[C@@H](Nc1ccccc1C(=O)O)c1cc(F)cc2c(=O)n(C)c(-c3cnc(-c4nccs4)c(F)c3)cc12 [Example 518]					1 to 500 nM	> 15000 nM	1 to 500 nM	> 15000 nM
Cc1cc(C(C)Nc2ccccc2C(=O)O)c2cc(C#Cc3ccccc3)n(C)c(=O)c2c1 (single isomer, unassigned) [Example 35, 2-((1-(2,7-dimethyl-1-oxo-3-(phenylethynyl)-1,2-dihydroisoquinolin-5-yl)ethyl)amino)benzoic acid]	> 15000 nM		> 15000 nM			> 15000 nM		> 15000 nM
Cc1cc([C@@H](C)Nc2ccccc2C(=O)O)c2cc(-c3cnc(CF)c(F)c3)n(C)c(=O)c2c1 [Example 289]	1 to 500 nM	> 15000 nM	1 to 500 nM	> 15000 nM				
Cc1cc(C(C)Nc2ccccc2C(=O)O)c2cc(N3Cc4cccnc4C3)n(C)c(=O)c2c1 (single isomer, unassigned) [Example 18, 2-((1-(3-(5,7-dihydro-6H-pyrrolo[3,4-b]pyridin-6-yl)-2,7-dimethyl-1-oxo-1,2-dihydroisoquinolin-5-yl)ethyl)amino)benzoic acid]	> 15000 nM		2000 to 15000 nM			> 15000 nM		2000 to 15000 nM
Cc1cc([C@@H](C)Nc2ccccc2C(=O)O)c2cc(-c3ccc(OCC4CC4)nc3)n(C)c(=O)c2c1 [Example 208]					1 to 500 nM	> 15000 nM	1 to 500 nM	> 15000 nM
Cc1cc([C@@H](C)Nc2ccccc2C(=O)O)c2cc(-c3ccc(Oc4ccc(F)cc4)nc3)n(C)c(=O)c2c1 [Example 194]	1 to 500 nM	> 15000 nM	500 to 2000 nM	> 15000 nM				
